Values after ≈ are worked out from the molar mass of the structure shown.
Legend:
[1] = system: Intercellular Adhesion Molecule type 1 (ICAM-1); experiment: Cell-ELISA, TNF-α induced ICAM-1 expression on HUVECs; assay type: cell-based; settings: Homo sapiens, HUVEC; HUVECs pretreated 2 hours, TNF-α 16 hours
Procedure: FIG. 4. Inhibition of TNF-α induced expression Intercellular Adhesion Molecule type 1 (ICAM-1) and Vascular Cell Adhesion Molecule type 1 (VCAM-1) on HUVECs by IICT-TA67. To determine the effect of IICT-TA67 on TNF-α induced cell adhesion molecules such as ICAM-1 and VCAM-1, HUVECs were pretreated with various concentrations of IICT-TA67 for 2 hours followed by induction with TNF-α for 16 hours. The cell surface expression of cell adhesion molecules was measured by ELISA.
Cell-ELISA was used for measuring the expression of ICAM-1 on surface of endothelial cells. Endothelial cells were incubated with or without IICT-TA67 at desired concentrations for the required period, followed by treatment with TNF-α (10 ng/ml) for 16 h for ICAM-1 and VCAM-1 expression. The cells were fixed with 1.0% glutaraldehyde. Non-specific binding of antibody was blocked by using skimmed milk (3.0% in PBS). Cells were incubated overnight at 4° C. with anti-ICAM-1 mAb anti-VCAM-1 antibody, diluted in blocking buffer, the cells were further washed with PBS and incubated with peroxidase-conjugated goat anti-mouse secondary Abs. […] Reaction was stopped by the addition of 2 N sulfuric acid and absorbance at 490 nm was measured using microplate reader (Spectramax 190, Molecular Devices, USA).

[2] = system: adhesion of human neutrophils to the endothelial monolayer; experiment: Neutrophil adhesion assay on TNF-alpha induced HUVECs; assay type: cell-based; settings: HUVEC, HUVECs pretreated 2 h, TNF-α 6 h, adhesion 1 h at 37° C.
Procedure: FIG. 5. IICT-TA67 inhibits the adhesion of Neutrophils on TNF-alpha induced HUVECs. To study whether the inhibition of Intercellular Adhesion Molecule type 1 (ICAM-1) and Vascular Cell Adhesion Molecule type 1(VCAM-1) functionally correlates with the inhibition of adhesion of neutrophils to the endothelial monolayer, neutrophil adhesion assay was performed. For this, HUVECs were pretreated with various concentrations of IICT-TA67 for 2 hours followed by induction with TNF-α for 6 hours. Human blood neutrophils were added onto the endothelial cells monolayer and allowed to adhere for one hour at 37° C. The number of cells that remained adhered to the monolayer was estimated by measuring the peroxidase activity.
Neutrophils were isolated from peripheral blood of healthy individuals. Blood was collected in heparin solution (20 U/ml) and erythrocytes were removed by sedimentation against 6% dextran solution. […] The number of cells were recorded to make a final concentration of 6×10^5 cells/ml.
The endothelial cells plated in 96-well culture plates were incubated with or without compound IICT-TA67 at desired concentrations for 2 h, followed by induction with TNF-α (10 ng/ml) for 6 h. […] The absorbance was read at 490 nm using an automated microplate reader (Model 680, Bio-Rad, USA).

Work on `COc1ccc(C(c2[nH]c3ccccc3c2CC(=O)O)c2[nH]c3ccccc3c2CC(=O)O)cc1Oc1nc(NC2CC2)nc(NC2CC2)n1` [Compound 7, 2,2′-[2,2′-3-(4,6-bis-cyclopropylamino)-1,3,5-triazin-2-yl-oxy-4-methoxy-phenyl]-methylene-bis-(1H-indole-3,3-diyl)-diacetic acid] yielded an IC50 [1] of 10.6 µg/mL (≈ 15.7 µM) and an IC50 [2] of 12 µg/mL (≈ 17.8 µM).

Source: US9085559B2, “Triazine-aryl-bis-indoles and process for preparation thereof” (COUNCIL OF SCIENTIFIC & INDUSTRIAL RESEARCH, priority 2010, dated 2015)
